In paper PMC9230201, “Sustained Consumption of a Decaffeinated Green Coffee Nutraceutical Has Limited Effects on Phenolic Metabolism and Bioavailability in Overweight/Obese Subjects” (Nutrients, 2022):

Legend:
[1] = Urinary excretion of phenolic metabolites after intake of the GCPE nutraceutical; details: for Cumulative urinary excretion, Total 0–24 h / Urinary excretion: urine; for Cumulative urinary excretion, Total 0–24 h: mean ± SEM, n = 9
[2] = Plasma pharmacokinetics of phenolic metabolites after intake of the GCPE nutraceutical (LC-MS-QToF); details: for Cmax: mean ± SEM, n = 9; for AUC(0-t) / Tmax: 300 mg hydroxycinnamic acids; for AUC(0-t): AUC0–24h; for Tmax: Tmax (h) or Range
Procedure: Participants attended the Human Nutrition Unit (HNU) at the Institute of Food Science, Technology and Nutrition (ICTAN-CSIC) on two consecutive days at the beginning of the intervention (week 0) and also on two consecutive days at the end of the study, after consuming daily two doses of the GCPE nutraceutical, providing 600 mg/d phenols, during two months (week 8). On each occasion, on the first visit day (Figure 1), subjects arrived at the HNU after an overnight (12 h) fast and provided a urine sample. A licensed health care professional placed an intravenous catheter in the subjects′ nondominant arm and collected a fasting blood sample (baseline, 0 h). Then, subjects drank the soluble GCPE nutraceutical dissolved in 200 mL of water. Subsequently, blood samples were collected in EDTA-coated tubes at 0.5, 1, 1.5, 2, 3, 4, 6, 8, 10, and 11 h. On the sampling days, volunteers remained at the HNU, where a (poly)phenol-free diet was provided. Half an hour after consuming the nutraceutical, volunteers ate a breakfast consisting of ham, cheese, white bread, and a yogurt. Lunch (paella, bread, and yogurt) and an afternoon snack (muffin and yogurt) were eaten 5 and 9 h, respectively, after consuming the nutraceutical. Water and isotonic beverages were freely available. Volunteers were instructed to eat a (poly)phenol-free dinner that night and to attend the HNU on the next day after a 12 h fast. Then, a final blood sample was obtained from the antecubital vein 24 h after consuming the nutraceutical. The same protocol was followed during visits at the end of the 8-week intervention. On each occasion, two days before each visit to the HNU, subjects consumed a low (poly)phenol diet free of foods containing hydroxycinnamates such as coffee, herbal teas, red wine, artichokes, whole grain cereals, vegetables, fruits and fruit juices, and dried fruits. Only banana, watermelon, cantaloupes, and potatoes were allowed.
Blood samples were immediately centrifuged (10 min, 3000 rpm, 4 °C) to obtain plasma. […] All biological samples were stored at −80 °C until analysis.
To extract plasma metabolites, 10 µL of 50% (v/v) aqueous formic acid, and 900 µL cold acetonitrile containing 50 µL of 10% (w/v) ascorbic acid were added to 400 µL defrosted plasma. Samples were vortexed and centrifuged (14,000 rpm, 10 min, 4 °C), repeating the extraction and combining the two supernatants, which were reduced to dryness under nitrogen [13]. Dried samples were resuspended in 150 µL of 0.1% aqueous formic acid (containing 10% acetonitrile acidified with 0.1% formic acid), centrifuged (15 min, 14,000 rpm, 4 °C), and the supernatant collected.
A reverse-phase Ascentis Express C18 (15 cm × 3 mm, 2.7 µm) column (Sigma-Aldrich Quimica, Madrid, Spain), preceded by a Supelco 55215-U guard column (3 mm × 5 mm, 2.7 µm), was used for separation. Mobile phase A was 0.1% formic acid in Milli-Q water, and mobile phase B was acetonitrile containing 0.1% formic acid at a 0.3 mL/min flow rate. […] Metabolites were identified based on their retention time using authentic standards when possible.

[3] = Fecal excretion of phenolic metabolites after intake of the GCPE nutraceutical; details: feces
[4] = week 0, GCPE nutraceutical with 300 mg hydroxycinnamic acids
[5] = week 0, first peak where biphasic
[6] = week 8, GCPE nutraceutical with 300 mg hydroxycinnamic acids
[7] = week 8, first peak where biphasic
[8] = human, oral, week 0, first peak where biphasic
[9] = human, oral, week 8, first peak where biphasic
[10] = human, oral, 300 mg, Cmax, week 0, GCPE nutraceutical with 300 mg hydroxycinnamic acids
[11] = human, oral, 300 mg, Cmax, week 8, GCPE nutraceutical with 300 mg hydroxycinnamic acids
[12] = week 8, listed as 3′-hydroxyphenylacetic acid

COc1cc(/C=C/C(=O)O[C@@H]2C[C@@](O)(C(=O)O)C[C@@H](O)[C@@H]2O)ccc1O [5-Feruloylquinic acid]
Cumulative urinary excretion, Total 0–24 h ([1]; week 0): 1.5 ± 0.2 µmol | Cumulative urinary excretion, Total 0–24 h ([1]; week 8): 1.5 ± 0.2 µmol | Amount excreted in urine, 0- 3 h ([1]; week 0, interval 0–3 h): 0.8 ± 0.2 µmol | Amount excreted in urine, 3-6 h ([1]; week 0, interval 3–6 h): 0.5 ± 0.1 µmol | Amount excreted in urine, 6-9 h ([1]; week 0, interval 6–9 h): 0.13 ± 0.04 µmol | Amount excreted in urine, 9-11 h ([1]; week 0, interval 9–11 h): 0.03 ± 0.01 µmol | Amount excreted in urine, 11-24 h ([1]; week 0, interval 11–24 h): 0.09 ± 0.01 µmol | Amount excreted in urine, 0- 3 h ([1]; week 8, interval 0–3 h): 0.8 ± 0.1 µmol | Amount excreted in urine, 3-6 h ([1]; week 8, interval 3–6 h): 0.39 ± 0.07 µmol | Amount excreted in urine, 6-9 h ([1]; week 8, interval 6–9 h): 0.2 ± 0.04 µmol | Amount excreted in urine, 9-11 h ([1]; week 8, interval 9–11 h): 0.05 ± 0.03 µmol | Amount excreted in urine, 11-24 h ([1]; week 8, interval 11–24 h): 0.08 ± 0.02 µmol | AUC0–24h ([2]; week 0): 0.09 ± 0.02 µM/min | Cmax [2, 4]: 32 ± 4 nM | Tmax (h) or Range [2, 5]: 0.9 ± 0.1 h | AUC0–24h ([2]; week 8): 0.08 ± 0.02 µM/min | Cmax [2, 6]: 34 ± 5 nM | Tmax (h) or Range [2, 7]: 0.9 ± 0.1 h | Amount of fecal metabolite excreted at 0 h ([3]; week 0, mean ± SEM, n = 9): 0.0009 ± 0.0007 µmol/g | Amount of fecal metabolite excreted at 0 h ([3]; week 8): 0.002 ± 0.002 µmol/g | Amount of fecal metabolite excreted at 24 h ([3]; week 0): 0.002 ± 0.001 µmol/g | Amount of fecal metabolite excreted at 24 h ([3]; week 8): 0.0003 ± 0.0003 µmol/g

COc1cc(CCC(=O)O)ccc1O [DHFA, 3-(4′-Hydroxy-3′-methoxyphenyl)propanoic acid]
Cumulative urinary excretion, Total 0–24 h ([1]; week 0): 0.5 ± 0.2 µmol | Cumulative urinary excretion, Total 0–24 h ([1]; week 8): 1.1 ± 0.4 µmol | Amount excreted in urine, 0- 3 h ([1]; week 0, interval 0–3 h): 0.03 ± 0.02 µmol | Amount excreted in urine, 3-6 h ([1]; week 0, interval 3–6 h): 0.007 ± 0.007 µmol | Amount excreted in urine, 6-9 h ([1]; week 0, interval 6–9 h): 0.08 ± 0.04 µmol | Amount excreted in urine, 9-11 h ([1]; week 0, interval 9–11 h): 0.05 ± 0.02 µmol | Amount excreted in urine, 11-24 h ([1]; week 0, interval 11–24 h): 0.11 ± 0.05 µmol | Amount excreted in urine, 0- 3 h ([1]; week 8, interval 0–3 h): 0.08 ± 0.07 µmol | Amount excreted in urine, 3-6 h ([1]; week 8, interval 3–6 h): 0.03 ± 0.02 µmol | Amount excreted in urine, 6-9 h ([1]; week 8, interval 6–9 h): 0.07 ± 0.05 µmol | Amount excreted in urine, 9-11 h ([1]; week 8, interval 9–11 h): 0.09 ± 0.04 µmol | Amount excreted in urine, 11-24 h ([1]; week 8, interval 11–24 h): 0.07 ± 0.04 µmol | AUC(0-t) ([2]; human, oral, week 0): 2.2 ± 0.6 µM·h | AUC(0-t) ([2]; human, oral, week 8): 1.8 ± 0.3 µM·h | Tmax [2, 8]: 7.6 ± 0.4 h | Tmax [2, 9]: 8.4 ± 0.6 h | Cmax [2, 10]: 300 ± 100 nM | Cmax [2, 11]: 250 ± 60 nM | Amount of fecal metabolite excreted at 0 h ([3]; week 0, mean ± SEM, n = 9): 0.013 ± 0.004 µmol/g | Amount of fecal metabolite excreted at 0 h ([3]; week 8): 0.018 ± 0.003 µmol/g | Amount of fecal metabolite excreted at 24 h ([3]; week 0): 0.019 ± 0.007 µmol/g | Amount of fecal metabolite excreted at 24 h ([3]; week 8): 0.014 ± 0.003 µmol/g

O=C(O)Cc1cccc(O)c1 [3′-Hydroxyphenylacetic acid]
Cumulative urinary excretion, Total 0–24 h ([1]; week 0): 12 ± 3 µmol | Cumulative urinary excretion, Total 0–24 h ([1]; week 8): 9 ± 2 µmol | Amount excreted in urine, TOTAL ([1]; week 0, Table S5 total): 12 ± 3 µmol | Amount excreted in urine, 0- 3 h ([1]; week 0, interval 0–3 h): 1.6 ± 0.5 µmol | Amount excreted in urine, 3-6 h ([1]; week 0, interval 3–6 h): 1 ± 0.2 µmol | Amount excreted in urine, 6-9 h ([1]; week 0, interval 6–9 h): 0.8 ± 0.2 µmol | Amount excreted in urine, 9-11 h ([1]; week 0, interval 9–11 h): 0.53 ± 0.09 µmol | Amount excreted in urine, 11-24 h ([1]; week 0, interval 11–24 h): 2.5 ± 0.7 µmol | Amount excreted in urine, 0- 3 h ([1]; week 8, interval 0–3 h): 1 ± 0.2 µmol | Amount excreted in urine, 3-6 h ([1]; week 8, interval 3–6 h): 0.7 ± 0.2 µmol | Amount excreted in urine, 6-9 h ([1]; week 8, interval 6–9 h): 0.7 ± 0.1 µmol | Amount excreted in urine, 9-11 h ([1]; week 8, interval 9–11 h): 0.6 ± 0.2 µmol | Amount excreted in urine, 11-24 h ([1]; week 8, interval 11–24 h): 1.8 ± 0.6 µmol | AUC0–24h ([2]; week 0): 2.6 ± 0.9 µM/min | Cmax [2, 4]: 200 ± 70 nM | Tmax (h) or Range [2, 5]: 8 ± 2 h | AUC0–24h ([2]; week 8): 1.6 ± 0.6 µM/min | Cmax [2, 6]: 150 ± 50 nM | Tmax (h) or Range [2, 7]: 5 ± 1 h | Amount of fecal metabolite excreted at 0 h ([3]; week 0, mean ± SEM, n = 9): 0.31 ± 0.09 µmol/g | Amount of fecal metabolite excreted at 0 h ([3]; week 0, mean ± SEM, n = 9, listed as 3′-hydroxyphenylacetic acid): 0.31 µmol/g | Amount of fecal metabolite excreted at 0 h ([3]; week 8): 0.18 ± 0.08 µmol/g | Amount of fecal metabolite excreted at 0 h [3, 12]: 0.18 µmol/g | Amount of fecal metabolite excreted at 24 h ([3]; week 0): 0.21 ± 0.08 µmol/g | Amount of fecal metabolite excreted at 24 h ([3]; week 0, listed as 3′-hydroxyphenylacetic acid): 0.21 µmol/g | Amount of fecal metabolite excreted at 24 h ([3]; week 8): 0.11 ± 0.04 µmol/g | Amount of fecal metabolite excreted at 24 h [3, 12]: 0.11 µmol/g

O=C(O)c1ccc(O)cc1 [4-Hydroxybenzoic acid]
Urinary excretion ([1]; week 0): 1.3 µmol/24 h | Cumulative urinary excretion, Total 0–24 h ([1]; week 0): 1.3 ± 0.2 µmol | Urinary excretion ([1]; week 8): 1.01 µmol/24 h | Cumulative urinary excretion, Total 0–24 h ([1]; week 8): 1.01 ± 0.09 µmol | Amount excreted in urine, 0- 3 h ([1]; week 0, interval 0–3 h): 0.3 ± 0.2 µmol | Amount excreted in urine, 3-6 h ([1]; week 0, interval 3–6 h): 0.11 ± 0.02 µmol | Amount excreted in urine, 6-9 h ([1]; week 0, interval 6–9 h): 0.1 ± 0.02 µmol | Amount excreted in urine, 9-11 h ([1]; week 0, interval 9–11 h): 0.09 ± 0.01 µmol | Amount excreted in urine, 11-24 h ([1]; week 0, interval 11–24 h): 0.29 ± 0.04 µmol | Amount excreted in urine, 0- 3 h ([1]; week 8, interval 0–3 h): 0.14 ± 0.02 µmol | Amount excreted in urine, 3-6 h ([1]; week 8, interval 3–6 h): 0.1 ± 0.01 µmol | Amount excreted in urine, 6-9 h ([1]; week 8, interval 6–9 h): 0.09 ± 0.02 µmol | Amount excreted in urine, 9-11 h ([1]; week 8, interval 9–11 h): 0.08 ± 0.02 µmol | Amount excreted in urine, 11-24 h ([1]; week 8, interval 11–24 h): 0.26 ± 0.03 µmol | AUC(0-t) ([2]; human, oral, week 0): 0.9 ± 0.2 µM·h | AUC(0-t) ([2]; human, oral, week 8): 0.5 ± 0.2 µM·h | Tmax [2, 8]: 7 ± 2 h | Tmax [2, 9]: 5 ± 3 h | Cmax [2, 10]: 90 ± 10 nM | Cmax [2, 11]: 80 ± 10 nM | Amount of fecal metabolite excreted at 0 h ([3]; week 0, mean ± SEM, n = 9): 0.004 ± 0.004 µmol/g | Amount of fecal metabolite excreted at 0 h ([3]; week 8): 0.006 ± 0.004 µmol/g | Amount of fecal metabolite excreted at 24 h ([3]; week 0): 0.0006 ± 0.0004 µmol/g | Amount of fecal metabolite excreted at 24 h ([3]; week 8): 0.01 ± 0.01 µmol/g

O=C(O)CCc1ccc(O)cc1 [DHCoA, 3-(4′-Hydroxyphenyl)propanoic acid]
Urinary excretion ([1]; week 0): 4 µmol/24 h | Cumulative urinary excretion, Total 0–24 h ([1]; week 0): 4 ± 1 µmol | Urinary excretion ([1]; week 8): 6 µmol/24 h | Cumulative urinary excretion, Total 0–24 h ([1]; week 8): 6 ± 2 µmol | Amount excreted in urine, 0- 3 h ([1]; week 0, interval 0–3 h): 0.16 ± 0.04 µmol | Amount excreted in urine, 3-6 h ([1]; week 0, interval 3–6 h): 0.09 ± 0.02 µmol | Amount excreted in urine, 6-9 h ([1]; week 0, interval 6–9 h): 0.5 ± 0.2 µmol | Amount excreted in urine, 9-11 h ([1]; week 0, interval 9–11 h): 0.6 ± 0.2 µmol | Amount excreted in urine, 11-24 h ([1]; week 0, interval 11–24 h): 1.4 ± 0.4 µmol | Amount excreted in urine, 0- 3 h ([1]; week 8, interval 0–3 h): 0.4 ± 0.2 µmol | Amount excreted in urine, 3-6 h ([1]; week 8, interval 3–6 h): 0.3 ± 0.1 µmol | Amount excreted in urine, 6-9 h ([1]; week 8, interval 6–9 h): 0.9 ± 0.3 µmol | Amount excreted in urine, 9-11 h ([1]; week 8, interval 9–11 h): 0.8 ± 0.3 µmol | Amount excreted in urine, 11-24 h ([1]; week 8, interval 11–24 h): 1 ± 0.2 µmol | Amount of fecal metabolite excreted at 0 h ([3]; week 0, mean ± SEM, n = 9): 0.005 ± 0.003 µmol/g | Amount of fecal metabolite excreted at 0 h ([3]; week 8): 0.006 ± 0.006 µmol/g | Amount of fecal metabolite excreted at 24 h ([3]; week 0): 0.005 ± 0.005 µmol/g | Amount of fecal metabolite excreted at 24 h ([3]; week 8): 0.014 ± 0.005 µmol/g
